From the NIST ThermoML archive (doi:10.1016/j.fluid.2004.10.028)

Assay: wn = mass fraction of the nth substance listed
Conditions: Liquid, Capillary tube (Ostwald / Ubbelohde) method

O=S(=O)([O-])[O-].[Na+].[Na+] [sodium sulfate] + O
viscosity [mPa·s]
Conditions | 100 kPa | 10000 kPa | 20000 kPa | 30000 kPa | 40000 kPa
298.15 K, w1 = 0.015 | 0.933 | 0.9335 | 0.9365 | 0.9399 | 0.942
298.15 K, w1 = 0.03 | 0.9746 | 0.9759 | 0.9769 | 0.9799 | 0.9812
298.15 K, w1 = 0.05 | 1.035 | 1.04 | 1.041 | 1.042 | 1.044
298.15 K, w1 = 0.07 | 1.119 | 1.119 | 1.119 | 1.121 | 1.122
298.15 K, w1 = 0.1 | 1.252 | 1.255 | 1.256 | 1.257 | 1.258
298.15 K, w1 = 0.15 | 1.545 | 1.548 | 1.55 | 1.551 | 1.554
298.15 K, w1 = 0.2 | 1.963 | 1.965 | 1.966 | 1.967 | 1.968
303.15 K, w1 = 0.23 | 1.993 | 1.993 | 1.996 | 1.999 | 2.002
303.15 K, w1 = 0.26 | 2.243 | 2.245 | 2.249 | 2.253 | 2.259
323.05 K, w1 = 0.1 | 0.7656 | 0.767 | 0.771 | 0.7745 | 0.778
323.15 K, w1 = 0.03 | 0.5972 | 0.5991 | 0.6012 | 0.6054 | 0.609
323.15 K, w1 = 0.2 | 1.168 | 1.17 | 1.176 | 1.181 | 1.185
323.15 K, w1 = 0.23 | 1.333 | 1.336 | 1.34 | 1.346 | 1.353
323.15 K, w1 = 0.26 | 1.504 | 1.505 | 1.509 | 1.515 | 1.523
323.25 K, w1 = 0.07 | 0.6825 | 0.6846 | 0.6875 | 0.6902 | 0.6935
323.4 K, w1 = 0.15 | 0.9286 | 0.9316 | 0.9354 | 0.9401 | 0.945
323.7 K, w1 = 0.015 | 0.5669 | 0.5741 | 0.5795 | 0.5821 | 0.5835
323.8 K, w1 = 0.05 | 0.6285 | 0.632 | 0.633 | 0.636 | 0.6385
347.2 K, w1 = 0.05 | 0.4434 | 0.4465 | 0.4496 | 0.453 | 0.4587
347.6 K, w1 = 0.07 | 0.4733 | 0.4764 | 0.4795 | 0.4824 | 0.4875
347.9 K, w1 = 0.2 | 0.7892 | 0.7944 | 0.8004 | 0.8053 | 0.811
348.15 K, w1 = 0.015 | 0.395 | 0.3977 | 0.4006 | 0.4038 | –
